In ChEMBL document CHEMBL1208787 (Bioorg Med Chem Lett, 2010):

What was measured:
Rattus norvegicus [1] = experiment: Antiinflammatory activity in rat assessed as inhibition of carrageenan-induced paw edema administered orally at dose equivalent to 70 mg/kg ibuprofen after 4 hrs; type: functional; conditions: route oral
[2] = system: Stomach (Rattus norvegicus); experiment: Gastrointestinal toxicity in rat gastric mucosa assessed as ulcerogenic activity-related malonaldehyde level per 100 mg of tissue administered orally at dose equivalent to 210 mg/kg ibuprofen (RVb = 3.26 nmol); conditions: in vivo, po
Mus musculus = experiment: Analgesic activity in po dosed mouse assessed as decrease in tail flick tendency after 4 hrs by tail flick test; type: functional
Rattus norvegicus [3] = experiment: Gastrointestinal toxicity in rat assessed as ulcerogenic index administered orally at dose equivalent to 210 mg/kg ibuprofen; type: organism-based; design: dose 210 mg/kg, route oral; conditions: in vivo, po
Rattus norvegicus [4] = experiment: Hepatotoxicity in po dosed rat assessed as effect on total serum protein level (reference value: 1.72+/- 0.02 g/dl); type: toxicity, organism-based; conditions: in vivo
Rattus norvegicus [5] = experiment: Hepatotoxicity in po dosed rat assessed as effect on serum SGPT level (reference value: 32.46 +/- 0.76 U/mL); type: toxicity, organism-based; conditions: in vivo
Rattus norvegicus [6] = experiment: Hepatotoxicity in po dosed rat assessed as effect on serum alkaline phosphatase level (reference value: 12.17 +/- 0.16 U/mL); type: toxicity, organism-based; conditions: in vivo
Rattus norvegicus [7] = experiment: Hepatotoxicity in po dosed rat assessed as effect on total albumin level (reference value: 1.63 +/- 0.02 g/dl); type: toxicity, organism-based; conditions: in vivo
Liver [8] = experiment: Hepatotoxicity in po dosed rat liver assessed as effect on hepatocyte morphological changes by histopathological analysis; type: toxicity, organism-based; conditions: hepatocytes
Rattus norvegicus [9] = experiment: Hepatotoxicity in po dosed rat assessed as effect on serum SGOT level (reference value: 143.71 +/- 1.1 U/mL); type: toxicity, organism-based; conditions: in vivo
Liver [10] = experiment: Gastrointestinal toxicity in rat liver assessed as ulcerogenic activity-related malonaldehyde level per 100 mg of tissue at 210 mg/kg, po (RVb = 3.26 nmol); type: organism-based; design: dose 210 mg/kg, route oral; conditions: in vivo
Rattus norvegicus [11] = experiment: Gastrointestinal toxicity in rat assessed as ulcerogenic index at 210 mg/kg, po; type: organism-based; design: dose 210 mg/kg, route oral; conditions: in vivo
Rattus norvegicus [12] = experiment: Antiinflammatory activity in rat assessed as inhibition of carrageenan-induced paw edema at 70 mg/kg, po after 4 hrs; type: functional

## c1ccc(-c2nn3c(-c4ccncc4)nnc3s2)cc1
Rattus norvegicus [1]
  inhibition in vivo: 66.4%
[2]
  Activity: 5.78 nmol
Mus musculus
  inhibition (INH): 56.06%
Rattus norvegicus [3]
  UI: 0.666

## Clc1ccccc1-c1nn2c(-c3ccncc3)nnc2s1
Rattus norvegicus [1]
  inhibition in vivo: 45.4%
[2]
  Activity: 8.8 nmol
Mus musculus
  inhibition (INH): 37.27%
Rattus norvegicus [3]
  UI: 1.417

## Clc1ccc(-c2nn3c(-c4ccncc4)nnc3s2)c(Cl)c1
Rattus norvegicus [1]
  inhibition in vivo: 69.3%
[2]
  Activity: 6.71 nmol
Mus musculus
  inhibition (INH): 61.81%
Rattus norvegicus [3]
  UI: 0.75

## Cc1ccccc1-c1nn2c(-c3ccncc3)nnc2s1
Rattus norvegicus [1]
  inhibition in vivo: 79.8%
[2]
  Activity: 4.16 nmol
Mus musculus
  inhibition (INH): 62.54%
Rattus norvegicus [3]
  UI: 0.471

## CC(=O)Oc1ccccc1-c1nn2c(-c3ccncc3)nnc2s1
Rattus norvegicus [1]
  inhibition in vivo: 39.8%
[2]
  Activity: 8.82 nmol
Mus musculus
  inhibition (INH): 25%
Rattus norvegicus [3]
  UI: 2.25

## c1ccc(Oc2nn3c(-c4ccncc4)nnc3s2)cc1
Rattus norvegicus [1]
  inhibition in vivo: 63.5%
[2]
  Activity: 7.32 nmol
Mus musculus
  inhibition (INH): 52.27%
Rattus norvegicus [3]
  UI: 1.5

## O=[N+]([O-])c1ccc(-c2nn3c(-c4ccncc4)nnc3s2)cc1
Rattus norvegicus [1]
  inhibition in vivo: 86.3%
Rattus norvegicus [4]
  Activity: 1.78 g/dL
Rattus norvegicus [5]
  Activity: 29.34 U/ml
Rattus norvegicus [6]
  Activity: 12.76 U/ml
[2]
  Activity: 3.47 nmol
Mus musculus
  inhibition (INH): 74.32%
Rattus norvegicus [7]
  Activity: 1.77 g/dL
Liver [8]
  Activity: Non-toxic
Rattus norvegicus [9]
  Activity: 138.32 U/ml
Rattus norvegicus [3]
  UI: 0.324

## Clc1ccccc1-c1nnc(-c2ccncc2)o1
Rattus norvegicus [1]
  inhibition in vivo: 37.7%
[2]
  Activity: 8.11 nmol
Mus musculus
  inhibition (INH): 29.54%
Rattus norvegicus [3]
  UI: 2

## Clc1ccc(-c2nnc(-c3ccncc3)o2)c(Cl)c1
Rattus norvegicus [1]
  inhibition in vivo: 84%
Rattus norvegicus [4]
  Activity: 1.76 g/dL
Rattus norvegicus [5]
  Activity: 28.67 U/ml
Rattus norvegicus [6]
  Activity: 13.79 U/ml
[2]
  Activity: 3.29 nmol
Mus musculus
  inhibition (INH): 70.37%
Rattus norvegicus [7]
  Activity: 1.72 g/dL
Liver [8]
  Activity: Non-toxic
Rattus norvegicus [9]
  Activity: 136.24 U/ml
Rattus norvegicus [3]
  UI: 0.386

## Cc1ccccc1-c1nnc(-c2ccncc2)o1
Rattus norvegicus [1]
  inhibition in vivo: 43.4%
[2]
  Activity: 7.33 nmol
Mus musculus
  inhibition (INH): 31.81%
Rattus norvegicus [3]
  UI: 2.266

## CC(=O)Oc1ccccc1-c1nnc(-c2ccncc2)o1
Rattus norvegicus [1]
  inhibition in vivo: 63.4%
[2]
  Activity: 5.19 nmol
Mus musculus
  inhibition (INH): 57.57%
Rattus norvegicus [3]
  UI: 0.831

## c1ccc(Oc2nnc(-c3ccncc3)o2)cc1
Rattus norvegicus [1]
  inhibition in vivo: 71.2%
[2]
  Activity: 3.33 nmol
Mus musculus
  inhibition (INH): 62.14%
Rattus norvegicus [3]
  UI: 0.731

## O=[N+]([O-])c1ccc(-c2nnc(-c3ccncc3)o2)cc1
Rattus norvegicus [1]
  inhibition in vivo: 54%
[2]
  Activity: 6.85 nmol
Mus musculus
  inhibition (INH): 44.05%
Rattus norvegicus [3]
  UI: 1.762

## c1ccc(-c2nnc(-c3ccncc3)o2)cc1
Rattus norvegicus [1]
  inhibition in vivo: 82.6%
Mus musculus
  inhibition (INH): 68.21%
Rattus norvegicus [3]
  UI: 1.667

## Sc1nnc(-c2ccncc2)o1
Rattus norvegicus [1]
  inhibition in vivo: 62.9%
[2]
  Activity: 5.78 nmol
Mus musculus
  inhibition (INH): 54.28%
Rattus norvegicus [3]
  UI: 1.327

## CC(C)Cc1ccc(C(C)C(=O)O)cc1 (stereo not drawn) [IBUPROFEN]
Liver [10]
  Activity: 7.51 nmol
Rattus norvegicus [4]
  Activity: 1.74 g/dL
Rattus norvegicus [5]
  Activity: 34.26 U/ml
Rattus norvegicus [6]
  Activity: 11.67 U/ml
Rattus norvegicus [11]
  UI: 2.315
Mus musculus
  inhibition (INH): 73.52%
Rattus norvegicus [7]
  Activity: 1.71 g/dL
Rattus norvegicus [12]
  inhibition in vivo at 70 mg/kg: 82.7%
Rattus norvegicus [9]
  Activity: 140.14 U/ml

## NNC(=O)c1ccncc1 [ISONIAZID]
Rattus norvegicus [1]
  inhibition in vivo: 51.6%
Rattus norvegicus [4]
  Activity: 1.55 g/dL
Rattus norvegicus [5]
  Activity: 40.21 U/ml
Rattus norvegicus [6]
  Activity: 8.31 U/ml
Mus musculus
  inhibition (INH): 45.9%
Rattus norvegicus [7]
  Activity: 1.48 g/dL
Rattus norvegicus [9]
  Activity: 151.25 U/ml
Rattus norvegicus [3]
  UI: 3.75
